This assay has as its target T1, pro‐form of GzmA (without signal peptide) (Homo sapiens, UniProt P12544).
T1 construct: purchased R&D Systems 2905-SE-010
T1 sequence (P12544 29-262): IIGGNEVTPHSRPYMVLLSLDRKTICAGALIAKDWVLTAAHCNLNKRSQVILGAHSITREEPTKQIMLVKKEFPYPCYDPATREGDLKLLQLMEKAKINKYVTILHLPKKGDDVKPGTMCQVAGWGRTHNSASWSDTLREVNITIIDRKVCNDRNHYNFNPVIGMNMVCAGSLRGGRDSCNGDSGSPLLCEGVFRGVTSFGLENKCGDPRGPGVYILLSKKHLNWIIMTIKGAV
As to the kind of experiment: In-gel fluorescence labeling of pro-form of hGzmA. Format: biochemical. Particulars: probe 50 nM, 2 h, 37 °C. The protocol: Figure 3 GzmA ABPs covalently and competitively label active human and mouse GzmA. […] Recombinant hGzmA (100 nM) was incubated with varying concentrations of each ABP at 37 °C. […] Recombinant hGzmA (100 nM) was preincubated with covalent inhibitors 1 or 2 (5 μM) for 2 h, followed by labeling with ABPs 3 -5 (50 nM) for 2 h at 37 °C. Note: […] C) Structure of qABP 6. D) Quenched natures of 5 and 6. […] F) Labeling of mGzmA (1 μM) with 5 and 6 (1 μM, 24 h, 37 °C). […] Recorded fluorescence at Ex/Em: 380/460 nm for residual GzmA proteolytic activity. […] B. Cell culture and preparation of cell lysates All cell lines were cultured at 37 °C under 5% CO2 in a humidified atmosphere. […] The supernatant was collected, and protein concentration was measured using a Pierce BCA protein assay. […] In-gel fluorescence imaging […] […] In-gel fluorescence and SYPRO-Ruby staining images were acquired on a Typhoon FLA9500 instrument, while western blot images were acquired on an […] […] Conditions for probe/inhibitor treatment for in-gel fluorescence analysis: Inhibitors and probes were incubated with active (or pro-) GzmA followed by treatment with 4X SDS reducing sample buffer. […] 20 μL of each sample was loaded onto a 15% polyacrylamide gel, which was then subjected to electrophoresis followed by the acquisition of in-gel fluorescence images. […]

Turning to IGNR [compound 5], the “Labeling of pro-form of GzmA” value was “No labeling”.

(Values after paper PMC12703428, “Development of Granzyme A Turn‐ON Fluorescent Activity‐Based Probes” (Chembiochem, 2025).)
